In brackets after ≈: the same amount, converted by molar mass. Several values for one entry are separate records, joined by “and”; a condition that tells them apart may be missing. Equal values may be shown once. Read-outs that look alike come from different tables or passages of the source.

Series [1] in a line: Thermodynamic aqueous solubility, 96-well plate protocol. It counts as physicochemical. Conditions: for solubility: 25 °C, pH 7, water, thermodynamic from solid. Here is the method:
The thermodyanamic aqueous solubility was determined using 96-plate plate protocol (Bharate, S. S. and Vishwakarma, R. A. 2015, Bioorg. Med. Chem. Lett. 25, 1561-1567). […] Briefly, the compounds were loaded into 96-well plate in the form of methanolic solution, followed by evaporation of solvent to get 1, 2, 4, 8, 16, 25, 40, 80, 160 and 300 μg of compound in solid form in wells. Thereafter, 200 μl of dissolution medium was added to the wells and plates were shaken horizontally at 300 rpm for 4 h at room temperature (25±1° C.). The plates were covered with aluminium foil and were kept overnight at room temperature for equilibration. Later, the plates were centrifuged at 3000 rpm for 15 min (Jouan centrifuge BR4i). Supernatant (50 μl) was withdrawn into UV 96-well plates (Corning® 96 Well Clear Hat Bottom UV-Transparent Microplate) for analyses with microplate reader (Molecular Devices, USA) at corresponding λmax of the sample. The analysis was performed in triplicate for each compound. The solubility curve of concentration (μg/mL) vs absorbance was plotted to find out saturation point and the corresponding concentration was noted.

In the next series the target is PI3K-alpha (Homo sapiens, UniProt P42336). The series can be described thus: PI3K-α assay (ADP-Glo). It counts as biochemical. Conditions: for inhibition at 0.5 µM / % PI3Kα inhibition at 500 nM: at 500 nM (0.5 μM), NI = no inhibition at tested concentration; for inhibition at 0.5 µM: read-out: % PI3Kα inhibition at 500 nM; for % PI3Kα inhibition at 500 nM: 0.5 µM. As to the method:
Compounds proposed in present invention were evaluated for their inhibitory activity on phosphoinositide-3-kinase-α and other isoforms (β, γ and δ). The preliminary screening was performed at 0.5 μM. The protocols used for these bioassays are as follows:
PI3K-alpha (diluted in 12.5 mM Glycine-NaOH (pH 8.5), 50 mM KCl, 2.5 mM MgCl2, 1 mM DTT, 0.05% CHAPS) is assayed in total volume of 20 μl containing 12.5 mM glycine-NaOH (pH 8.5), 50 mM KCl, 2.5 mM MgCl2, 1 mM DTT, 0.05% CHAPS, 0.01 mM ATP and 0.05 mM diC8 PIP2. The enzyme is assayed for 80 min after which 20 μl of ADP-Glo reagent is added. After a further incubation of 40 min, 40 μl of Kinase Detection Buffer is added. The assays are incubated for 40 min and then read on PerkinElmer Envision for 1 sec/well.
Background: ADP-Glo turns the ADP formed in a reaction into a luminescent signal.

Series [2] relates to MDA-MB-231 (breast cancer). The series can be described thus: Cytotoxicity, MTT assay. The series is classed as cell-based. The following applies: Homo sapiens, 48 h treatment. As to the method:
(§1) Selected compounds proposed in the present invention were evaluated for their cytotoxic effect against panel of 3 cancer cell line viz. MIAPaCa-2 (pancreatic cancer), A-549 (lung cancer), and MDA-MB-231 (breast cancer) using MTT assay. In each well of a 96-well plate, 3×10^3 cells were grown in 100 μL of medium. After 24 h, each test molecules were added to achieve a final concentration of 10 to 0.01 μmol/L, respectively. After 48 h of treatment, 20 μL of 2.5 mg/mL MTT (Organics Research, Inc.) solution in phosphate buffer saline was added to each well. […], supernatant was removed and formazan crystals were dissolved in 200 μL of DMSO. Absorbance was then measured at 570 nm using an absorbance plate reader (Bio-Rad Microplate Reader). Data are expressed as the percentage of viable cells in treated relative to non-treated conditions. Each experiment was repeated thrice and data was expressed as mean±SD of three independent experiments (Mordant, P. et al., Mol. Cancer Ther. 2010, 9, 358).
On the technique in general: Formazan colour is commonly taken as a measure of viable cells.

Series [3] has as its system MIAPaCa-2 (pancreatic cancer). The series can be described thus: Cytotoxicity, MTT assay. Conditions: Homo sapiens, MIA PaCa-2, 48 h treatment. It counts as cell-based. Here is the method: as §1
The next series deals with A-549 (lung cancer). The series can be described thus: Cytotoxicity, MTT assay. The series is classed as cell-based. Conditions: Homo sapiens, A549, 48 h treatment. As to the method: as §1
The target in the next series is PI3K-gamma (Homo sapiens, UniProt P48736). The series can be described thus: PI3K-γ assay (ADP-Glo). It counts as biochemical.
The target in another series is PI3K-delta (Homo sapiens, UniProt O00329). The series can be described thus: PI3K-δ assay (ADP-Glo). It counts as biochemical.
Series [4] concerns Ehrlich ascites carcinoma (EAC) cells. The series can be described thus: In-vivo activity in Ehrlich solid tumor model. Set-up: species or system swiss mice. The following applies: 22 at 25 mg/kg i.p., 5-fluorouracil at 22 mg/kg i.p., day 1-9.
A further series deals with PI3K-beta (Homo sapiens, UniProt P42338). The series can be described thus: PI3K-β assay (ADP-Glo). It counts as biochemical.
The conditions of series [5]: via glucuronidation of phenolic hydroxyl group; cited from earlier work.
Setting [6] is: water (aqueous, pH 7), pH = 7, read-out: Aqueous Solubility (μg/ml) at pH = 7.
[7] abbreviates: water, pH = 7, read-out: Aqueous Solubility (μg/ml) at pH = 7.
The mark [8] stands for this setting: water, in H2O at pH = 7, read-out: Solubility μg/ml in H2O at pH = 7.

Sequence of PI3K-beta (P42338 whole entry): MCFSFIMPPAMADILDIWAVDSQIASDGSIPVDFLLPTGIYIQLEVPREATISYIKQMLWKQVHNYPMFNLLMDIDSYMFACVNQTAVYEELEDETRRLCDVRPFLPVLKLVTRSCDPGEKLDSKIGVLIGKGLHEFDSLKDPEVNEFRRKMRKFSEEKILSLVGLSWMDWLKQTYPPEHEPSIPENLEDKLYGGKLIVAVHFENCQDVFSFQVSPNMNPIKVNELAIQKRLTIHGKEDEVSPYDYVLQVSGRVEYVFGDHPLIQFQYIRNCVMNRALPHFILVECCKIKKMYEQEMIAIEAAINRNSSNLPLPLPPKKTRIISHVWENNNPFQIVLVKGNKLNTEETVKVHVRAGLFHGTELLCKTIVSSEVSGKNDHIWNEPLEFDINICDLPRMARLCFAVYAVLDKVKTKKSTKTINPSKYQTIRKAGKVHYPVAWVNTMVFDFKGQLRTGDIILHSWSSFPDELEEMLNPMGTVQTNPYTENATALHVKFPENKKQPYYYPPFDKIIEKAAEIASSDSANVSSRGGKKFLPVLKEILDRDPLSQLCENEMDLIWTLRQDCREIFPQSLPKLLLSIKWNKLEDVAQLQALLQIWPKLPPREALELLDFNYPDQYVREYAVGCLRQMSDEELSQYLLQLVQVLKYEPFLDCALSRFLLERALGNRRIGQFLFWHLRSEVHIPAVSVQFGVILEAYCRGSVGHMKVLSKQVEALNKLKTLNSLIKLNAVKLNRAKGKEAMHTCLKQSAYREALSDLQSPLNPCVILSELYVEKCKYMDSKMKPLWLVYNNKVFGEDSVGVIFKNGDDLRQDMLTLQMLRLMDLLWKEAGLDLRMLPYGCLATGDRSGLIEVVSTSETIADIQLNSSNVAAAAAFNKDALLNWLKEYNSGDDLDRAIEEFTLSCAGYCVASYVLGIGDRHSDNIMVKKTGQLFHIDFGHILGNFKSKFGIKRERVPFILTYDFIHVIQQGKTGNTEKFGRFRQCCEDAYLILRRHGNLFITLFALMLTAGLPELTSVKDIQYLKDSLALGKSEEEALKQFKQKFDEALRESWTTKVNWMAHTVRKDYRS
Sequence of PI3K-beta (P27986 whole entry partner): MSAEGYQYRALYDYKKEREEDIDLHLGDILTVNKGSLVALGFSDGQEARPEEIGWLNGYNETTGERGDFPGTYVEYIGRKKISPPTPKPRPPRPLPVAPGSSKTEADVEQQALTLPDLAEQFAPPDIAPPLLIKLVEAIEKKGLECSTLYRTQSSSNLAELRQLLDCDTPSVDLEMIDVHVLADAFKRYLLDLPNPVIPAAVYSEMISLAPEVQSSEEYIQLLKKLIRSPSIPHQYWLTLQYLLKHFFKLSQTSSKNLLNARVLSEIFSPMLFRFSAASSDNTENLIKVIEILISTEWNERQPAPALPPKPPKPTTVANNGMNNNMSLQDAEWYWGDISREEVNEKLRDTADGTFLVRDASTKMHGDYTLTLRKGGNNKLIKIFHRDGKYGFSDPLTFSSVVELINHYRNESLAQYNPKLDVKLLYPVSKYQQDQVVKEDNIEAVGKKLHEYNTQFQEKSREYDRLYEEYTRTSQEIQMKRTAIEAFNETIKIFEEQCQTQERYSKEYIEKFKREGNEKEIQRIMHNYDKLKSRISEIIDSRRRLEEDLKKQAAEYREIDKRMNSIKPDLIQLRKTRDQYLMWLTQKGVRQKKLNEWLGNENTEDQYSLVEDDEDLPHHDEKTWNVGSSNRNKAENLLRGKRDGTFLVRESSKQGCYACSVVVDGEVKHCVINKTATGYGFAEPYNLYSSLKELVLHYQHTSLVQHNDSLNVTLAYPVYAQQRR
Sequence of PI3K-delta (O00329 whole entry): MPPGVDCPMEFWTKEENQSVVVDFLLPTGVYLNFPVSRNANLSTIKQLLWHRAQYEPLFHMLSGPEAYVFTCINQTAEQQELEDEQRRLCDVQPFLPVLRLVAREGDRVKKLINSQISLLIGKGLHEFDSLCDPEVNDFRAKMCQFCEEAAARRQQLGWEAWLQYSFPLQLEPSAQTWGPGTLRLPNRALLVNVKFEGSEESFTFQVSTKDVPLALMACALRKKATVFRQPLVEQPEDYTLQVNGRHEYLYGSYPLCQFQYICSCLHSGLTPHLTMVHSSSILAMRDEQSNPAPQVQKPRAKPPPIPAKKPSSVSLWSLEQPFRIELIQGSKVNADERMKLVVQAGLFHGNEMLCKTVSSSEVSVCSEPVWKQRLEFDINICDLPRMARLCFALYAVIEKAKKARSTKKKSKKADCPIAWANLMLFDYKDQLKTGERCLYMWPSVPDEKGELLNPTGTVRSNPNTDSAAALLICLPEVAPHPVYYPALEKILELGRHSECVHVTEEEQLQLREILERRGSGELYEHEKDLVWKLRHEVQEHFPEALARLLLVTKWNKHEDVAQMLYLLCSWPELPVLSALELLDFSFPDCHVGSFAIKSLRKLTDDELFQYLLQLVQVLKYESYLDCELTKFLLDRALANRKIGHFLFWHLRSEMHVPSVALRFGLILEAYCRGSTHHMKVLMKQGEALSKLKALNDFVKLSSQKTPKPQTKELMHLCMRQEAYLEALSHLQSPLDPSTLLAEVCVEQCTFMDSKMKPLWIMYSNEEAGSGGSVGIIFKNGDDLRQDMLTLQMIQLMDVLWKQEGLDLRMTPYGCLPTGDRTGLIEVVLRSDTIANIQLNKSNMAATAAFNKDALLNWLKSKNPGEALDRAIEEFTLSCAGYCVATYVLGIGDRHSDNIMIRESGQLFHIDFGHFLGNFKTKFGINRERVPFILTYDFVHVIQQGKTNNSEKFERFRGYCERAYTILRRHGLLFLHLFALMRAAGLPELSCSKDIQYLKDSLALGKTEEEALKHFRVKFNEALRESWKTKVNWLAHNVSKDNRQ
Sequence of PI3K-delta (P27986 whole entry partner): as the sequence (P27986 whole entry partner) above
Sequence of PI3K-alpha (P42336 whole entry, canonical isoform): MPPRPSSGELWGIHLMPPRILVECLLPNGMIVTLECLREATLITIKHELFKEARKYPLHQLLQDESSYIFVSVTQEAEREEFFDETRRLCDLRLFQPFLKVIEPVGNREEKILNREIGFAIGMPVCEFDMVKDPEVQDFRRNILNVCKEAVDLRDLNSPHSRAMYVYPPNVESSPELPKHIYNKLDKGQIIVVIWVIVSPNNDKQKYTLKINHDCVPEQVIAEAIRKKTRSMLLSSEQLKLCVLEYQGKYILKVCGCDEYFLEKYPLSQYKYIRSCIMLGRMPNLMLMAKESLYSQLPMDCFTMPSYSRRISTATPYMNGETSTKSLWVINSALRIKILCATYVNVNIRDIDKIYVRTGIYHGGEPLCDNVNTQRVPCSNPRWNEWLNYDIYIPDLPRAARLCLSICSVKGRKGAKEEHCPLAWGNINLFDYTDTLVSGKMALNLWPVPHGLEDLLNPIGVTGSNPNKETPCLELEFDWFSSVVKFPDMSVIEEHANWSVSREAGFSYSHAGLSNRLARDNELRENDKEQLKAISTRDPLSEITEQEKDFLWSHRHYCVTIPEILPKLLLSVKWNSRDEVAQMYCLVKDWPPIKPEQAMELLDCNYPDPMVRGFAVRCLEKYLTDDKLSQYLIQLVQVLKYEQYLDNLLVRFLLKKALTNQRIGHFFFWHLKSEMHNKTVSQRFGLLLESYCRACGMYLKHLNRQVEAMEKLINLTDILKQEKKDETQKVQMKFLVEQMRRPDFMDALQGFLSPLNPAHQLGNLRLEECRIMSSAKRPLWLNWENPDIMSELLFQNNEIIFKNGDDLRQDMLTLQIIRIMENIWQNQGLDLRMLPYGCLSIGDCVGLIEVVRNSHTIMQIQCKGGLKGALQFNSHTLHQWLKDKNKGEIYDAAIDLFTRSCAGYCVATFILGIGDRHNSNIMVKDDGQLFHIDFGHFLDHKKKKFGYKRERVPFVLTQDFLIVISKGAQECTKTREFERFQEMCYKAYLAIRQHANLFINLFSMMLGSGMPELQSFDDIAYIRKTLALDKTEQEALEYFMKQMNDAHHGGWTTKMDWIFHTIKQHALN
Sequence of PI3K-alpha (P27986 whole entry partner, canonical isoform): as the sequence (P27986 whole entry partner) above
Sequence of PI3K-gamma (P48736 whole entry): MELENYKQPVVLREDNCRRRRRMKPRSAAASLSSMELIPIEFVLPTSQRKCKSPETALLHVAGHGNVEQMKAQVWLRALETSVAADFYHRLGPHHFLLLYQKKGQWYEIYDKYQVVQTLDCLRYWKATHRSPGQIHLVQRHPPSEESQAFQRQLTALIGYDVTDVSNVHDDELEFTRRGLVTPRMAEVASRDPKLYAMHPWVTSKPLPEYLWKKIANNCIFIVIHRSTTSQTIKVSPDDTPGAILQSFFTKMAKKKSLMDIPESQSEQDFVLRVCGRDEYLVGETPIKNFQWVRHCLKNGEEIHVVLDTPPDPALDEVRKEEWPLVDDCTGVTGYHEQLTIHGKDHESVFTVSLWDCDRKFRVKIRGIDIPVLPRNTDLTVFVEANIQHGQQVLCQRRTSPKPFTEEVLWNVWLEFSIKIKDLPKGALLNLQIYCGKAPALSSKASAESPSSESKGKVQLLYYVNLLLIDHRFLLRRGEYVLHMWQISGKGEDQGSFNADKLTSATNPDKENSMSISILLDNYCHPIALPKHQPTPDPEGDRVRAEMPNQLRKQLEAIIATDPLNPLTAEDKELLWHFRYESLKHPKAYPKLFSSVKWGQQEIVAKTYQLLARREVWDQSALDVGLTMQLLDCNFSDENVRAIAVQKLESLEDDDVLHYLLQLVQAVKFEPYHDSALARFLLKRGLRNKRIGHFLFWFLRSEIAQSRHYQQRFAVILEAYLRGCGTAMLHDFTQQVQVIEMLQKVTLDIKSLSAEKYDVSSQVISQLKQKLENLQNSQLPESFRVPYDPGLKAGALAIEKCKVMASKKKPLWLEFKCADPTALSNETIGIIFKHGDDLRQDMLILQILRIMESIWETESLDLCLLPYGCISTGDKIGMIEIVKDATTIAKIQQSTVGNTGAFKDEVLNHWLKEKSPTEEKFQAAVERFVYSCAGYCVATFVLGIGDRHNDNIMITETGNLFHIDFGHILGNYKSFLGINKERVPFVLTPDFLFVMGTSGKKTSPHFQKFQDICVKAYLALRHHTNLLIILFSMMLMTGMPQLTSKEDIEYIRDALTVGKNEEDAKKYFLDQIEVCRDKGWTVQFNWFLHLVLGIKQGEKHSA

A word on the inhibition: it is the drop in the measured response relative to a control, in per cent. As for `CC(C)(C)OC(=O)NC1CCN(c2nc(N3CCOCC3)c3oc4ncccc4c3n2)CC1` [Compound 6, tert-butyl (1-(4-morpholinopyrido [3′,2′:4,5]furo[3,2-d]pyrimidin-2-yl)piperidin-4-yl)carbamate], the solubility in series [1] (setting [6]) is 10 µg/mL (≈ 22 µM). Further, at PI3K-alpha, the inhibition at 0.5 µM turned out to be 67.3%.

Usually IC50 stands for the concentration that gives 50% inhibition. Take `CCOC(=O)c1ccc(NC(=O)NC2CCN(c3nc(N4CCOCC4)c4oc5ncccc5c4n3)CC2)cc1` [Compound 8, ethyl 4-(3-(1-(4-morpholinopyrido[3′,2′:4,5]furo[3,2-d]pyrimidin-2-yl)piperidin-4-yl)ureido)benzoate]: the solubility in series [1] (setting [6]) worked out at 10 µg/mL (≈ 18.3 µM). For the same compound, at PI3K-alpha, the “% PI3Kα inhibition at 500 nM” value is reported as 85%. On PI3K-alpha, the inhibition at 0.5 µM is more than 70%. For the same compound, the IC50 on PI3K-alpha (read-out: IC50 for PI3K (μM) PI3K-α) was 0.008 µM; in [2] it was 8 µM; in series [3] it was 8 µM; in the series on A-549 (lung cancer), 8 µM.

Take `CN1CCN(C(=O)c2ccc(NC(=O)NC3CCN(c4nc(N5CCOCC5)c5oc6ncccc6c5n4)CC3)cc2)CC1` [Compound 10, 1-(4-(4-methylpiperazine-1-carbonyl)phenyl)-3-(1-(4-morpholinopyrido[3′,2′:4,5]furo[3,2-d]pyrimidin-2-yl)piperidin-4-yl)urea]: the “Aqueous Solubility (μg/ml) at pH = 7” value in series [1] (pH = 7) is given as 400 μg/ml. The solubility in series [1] (setting [7]) is more than 200 µg/mL. Besides, the “% PI3Kα inhibition at 500 nM” value at PI3K-alpha worked out at 76.8%. On PI3K-alpha, the inhibition at 0.5 µM is more than 70%. Moreover, the IC50 is 0.08 µM at PI3K-alpha (read-out: IC50 for PI3Kα), 40 µM in series [2], 8 µM in [3] and 9 µM in the series with A-549 (lung cancer).

For `CC(C)(C)OC(=O)NC1CCN(c2nc(N3CCOCC3)c3sccc3n2)CC1` [Compound 16, tert-butyl (1-(4-morpholino thieno[3,2-d]pyrimidin-2-yl)piperidin-4-yl)carbamate], on PI3K-alpha, the inhibition at 0.5 µM is less than 0%.

Regarding `CC(C)(C)OC(=O)NC1CCN(c2nc(N3CCOCC3)c3sc(C(C)(C)O)cc3n2)CC1` [Compound 17, tert-butyl (1-(6-(2-hydroxypropan-2-yl)-4-morpholinothieno[3,2-d]pyrimidin-2-yl)piperidin-4-yl)carbamate], in [1] (setting [6]), the solubility came out at 200 µg/mL (≈ 419 µM). Further, the solubility in series [1] (setting [7]) is more than 200 µg/mL. In addition, on PI3K-alpha, the “% PI3Kα inhibition at 500 nM” value was 81% and the inhibition at 0.5 µM was more than 70%.

For `CCOC(=O)c1ccc(NC(=O)NC2CCN(c3nc(N4CCOCC4)c4sccc4n3)CC2)cc1` [Compound 21, ethyl 4-(3-(1-(4-morpholinothieno[3,2-d]pyrimidin-2-yl)piperidin-4-yl)ureido)benzoate], the solubility in series [1] (setting [6]) amounted to 120 µg/mL (≈ 235 µM). Moreover, the inhibition at 0.5 µM on PI3K-alpha was found to be 59%.

In the case of `CCc1ccc(NC(=O)NC2CCN(c3nc(N4CCOCC4)c4sccc4n3)CC2)cc1` [Compound 22, 1-(4-ethylphenyl)-3-(1-(4-morpholinothieno[3,2-d]pyrimidin-2-yl)piperidin-4-yl)urea], the IC50 is more than 20 µM at PI3K-gamma; 0.04 µM at PI3K-alpha (read-out: IC50 for PI3Kα); 4 µM in [2]; 5 µM in [3]; 7 µM with A-549 (lung cancer); more than 20 µM at PI3K-delta. The same compound registered an IC50 at PI3K-beta of more than 20 µM. Besides, the “Fold-selectivity for PI3K-α with respect to other isoforms PI3K-γ” value at PI3K-gamma (PI3K-α versus PI3K-γ) was more than 500 fold. Further, the “% inhibition of PI3K-γ” value at PI3K-gamma (up to 20 μM) is on record as 0%. For the same compound, the solubility in series [1] (setting [8]) is 800 µg/mL (≈ 1710 µM). Further, the inhibition at 0.5 µM on PI3K-alpha came out at 74%. Also, the “Fold-selectivity for PI3K-α with respect to other isoforms PI3K-δ” value at PI3K-delta is on record as more than 500 fold. In addition, the “% inhibition of PI3K-δ” value on PI3K-delta (up to 20 μM) came out at 0%. The “Day 13 % Tumor Growth Inhibition” value in series [4] (day 13, versus saline control) is 32.7% and 32.73%. The “Day 13 Avg. tumor weights” value in [4] (day 13) was determined as 1128.4 mg. In addition, the “Fold-selectivity for PI3K-α with respect to other isoforms PI3K-β” value on PI3K-beta (PI3K-α versus PI3K-β) was more than 500 fold. For the same compound, the “% inhibition of PI3K-β” value at PI3K-beta (up to 20 μM) is reported as 0%.

Turning to `Cc1ccccc1NC(=O)NC1CCN(c2nc(N3CCOCC3)c3sccc3n2)CC1` [Compound 23, 1-(1-(4-morpholinothieno[3,2-d]pyrimidin-2-yl)piperidin-4-yl)-3-(o-tolyl)urea], the solubility in [1] (setting [6]) stood at 20 µg/mL (≈ 44.2 µM). For the same compound, on PI3K-alpha, the inhibition at 0.5 µM was 68%.

With `O=C(Nc1ccc(C(F)(F)F)cc1)NC1CCN(c2nc(N3CCOCC3)c3sccc3n2)CC1` [Compound 24, 1-(1-(4-morpholinothieno[3,2-d]pyrimidin-2-yl)piperidin-4-yl)-3-(4-(trifluoromethyl)phenyl)urea], the “% PI3Kα inhibition at 500 nM” value on PI3K-alpha was found to be 70%. The inhibition at 0.5 µM on PI3K-alpha is more than 70%. Also, the IC50 in series [2] was determined as 8 µM; in [3], 9 µM; in the series on A-549 (lung cancer), 13 µM.

In the case of `O=C(Nc1ccccc1F)NC1CCN(c2nc(N3CCOCC3)c3sccc3n2)CC1` [Compound 25, 1-(2-fluorophenyl)-3-(1-(4-morpholinothieno[3,2-d]pyrimidin-2-yl)piperidin-4-yl)urea], in series [1] (setting [6]), the solubility was 200 µg/mL (≈ 438 µM). Besides, in [1] (setting [7]), the solubility was more than 200 µg/mL. Further, at PI3K-alpha, the “% PI3Kα inhibition at 500 nM” value is 76% and the inhibition at 0.5 µM is more than 70%.

Consider `CCOC(=O)c1ccc(NC(=O)NC2CCN(c3nc(N4CCOCC4)c4sc(C(C)(C)O)cc4n3)CC2)cc1` [Compound 26, ethyl 4-(3-(1-(6-(2-hydroxypropan-2-yl)-4-morpholinothieno[3,2-d]pyrimidin-2-yl)piperidin-4-yl)ureido)benzoate], for which, on PI3K-alpha, the inhibition at 0.5 µM stood at 40%.

As for `COc1ccc(S(=O)(=O)NC2CCN(c3nc(N4CCOCC4)c4sccc4n3)CC2)cc1` [Compound 27, 4-methoxy-N-(1-(4-morpholinothieno[3,2-d]pyrimidin-2-yl)piperidin-4-yl)benzenesulfonamide], the inhibition at 0.5 µM on PI3K-alpha is 33%.

On to `CC(C)(C)c1ccc(S(=O)(=O)NC2CCN(c3nc(N4CCOCC4)c4sccc4n3)CC2)cc1` [Compound 28, 4-(tert-butyl)-N-(1-(4-morpholinothieno[3,2-d]pyrimidin-2-yl)piperidin-4-yl)benzenesulfonamide], for which the solubility in series [1] (setting [6]) turned out to be 20 µg/mL (≈ 38.8 µM). The inhibition at 0.5 µM at PI3K-alpha was determined as 56%.

`O=S(=O)(NC1CCN(c2nc(N3CCOCC3)c3sccc3n2)CC1)c1ccc2ccccc2c1` [Compound 30, N-(1-(4-morpholinothieno [3,2-d]pyrimidin-2-yl)piperidin-4-yl)naphthalene-2-sulfonamide]: the solubility in series [1] (setting [6]) was determined as 5 µg/mL (≈ 9.81 µM). The inhibition at 0.5 µM on PI3K-alpha worked out at 54.8%.

Turning to `CS(=O)(=O)N1CCN(Cc2cc3nc(-c4cccc5[nH]ncc45)nc(N4CCOCC4)c3s2)CC1` [GDC-0941, reference compound], in series [1] (setting [8]), the solubility stood at 16 µg/mL (≈ 31.1 µM).

Regarding `Oc1cccc(-c2nc(N3CCOCC3)c3oc4ncccc4c3n2)c1` [PI-103, reference compound], the solubility in series [1] (setting [8]) was found to be 5 µg/mL (≈ 14.4 µM). Also, the metabolism result in [5] was “rapid metabolism”.

The values are drawn from US10696688B2, “Fused pyrimidines as isoform selective phosphoinositide-3-kinase-alpha inhibitors and process for preparation thereof” (Council of Scientific and Industrial Research, priority 2015, dated 2020).
